According to US8658167B2, “Methods and compositions for treatment and diagnosis of fibrosis, tumor invasion, angiogenesis, and metastasis” (Gilead Biologics, Inc., priority 2007, dated 2014):
Values belong to the molecule of their own block, whether it stands above or below them.

Assays:
LOX = target: T1, LOX (Mus musculus, UniProt P28301); assay: Surface-associated LOX activity in 3T3 cells (HRP-coupled Amplex Ultra Red assay, 1,5-diaminopentane substrate); type: cell-based; settings: BAPN 1 mM; LOX mAb 15 ug/ml; LOX siRNA 100 nM, day seven after transfection; FIG. 15
T1 construct: Specific LOX activity was evident on the cell surface of NIH3T3 cells; endogenous in cells; host or cells: NIH 3T3
T1 sequence (P28301 163-411): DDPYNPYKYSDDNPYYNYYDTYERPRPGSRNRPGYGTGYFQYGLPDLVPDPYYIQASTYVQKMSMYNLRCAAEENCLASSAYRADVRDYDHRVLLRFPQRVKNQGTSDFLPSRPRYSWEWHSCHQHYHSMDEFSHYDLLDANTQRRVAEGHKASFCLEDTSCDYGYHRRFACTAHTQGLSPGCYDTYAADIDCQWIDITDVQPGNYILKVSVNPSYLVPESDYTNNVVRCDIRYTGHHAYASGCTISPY
Procedure: Specific LOX activity was evident on the cell surface of NIH3T3 cells. Activity was quantitated with a horseradish peroxidase-coupled fluorescent assay method based on the oxidation of Amplex Ultra Red with a 1,5-diaminopentane substrate. LOX activity was inhibited with the irreversible small molecule inhibitor, BAPN, with a monoclonal antibody raised against a LOX peptide, and with a siRNA oligonucleotide specifically targeting LOX mRNA. (FIG. 15)
NIH 3T3 cells were transfected with 100 nM of LOX siRNA (Invitrogen Stealth, HSS106117, […] (SEQ ID NO:20)) or non-targeting control. 25 ul of Dharmafect® #3 (Dharmacon) was mixed with 1 ml of OPTIMEM I® (Invitrogen) and sat for 5 minutes at room temperature. 50 ul of 20 uM siRNA was then added, mixed and the transfection mix was incubated at room temperature for 15 minutes. 1 ml of transfection mix was then added to a trypsinized cell suspension in growth media containing 1×10^6 cells and the resulting mixture was plated into a 10 cm^2 culture dish. Six days after transfection, cells were trypsinized and re-plated into 96 well plate format at 50,000 cells/well. […] The plate was read in a Molecular Devices M5 plate reader at 37° C. The plate reader was configured to read fluorescence (ex=544 nm, em=590 nm) in kinetics mode for approximately 2.5 hours.

LOXL2 = assay: Mode of inhibition of LOXL2; type: biochemical; settings: 1,5-diaminopentane substrate; FIG. 21
Procedure: Mode of inhibition of antibodies against LOXL2 was conducted using the model described below. In these experiments, the dependence of the steady state rate on the concentration of 1,5-diaminopentane was monitored under increasing concentrations of antibody. The purpose was to assess whether the Km for substrate, kcat or both change in the presence of antibody. Parameter α describes the effect of the compound on substrate affinity. An α value equal to one describes a situation in which the compound binds equally well the free enzyme and the enzyme-substrate complex (non-competitive inhibition like). Values less than one describe an interaction in which the compound binds the enzyme-substrate complex (uncompetitive inhibition like). Values greater than one correspond to the compound binding the free enzyme better than the enzyme-substrate complex (competitive inhibition like). The β value describes the effect of the modulator on the rate of the enzyme. Inhibitors have values less than one (for a complete inhibitor β=0) and activators have values greater than one. […] The steady state rates were determined from the slope of the fluorescence response as a function of time as described above. Data was plotted as the dependence of steady state rate on the concentration of substrate (1,5-diaminopentane) at several fixed concentrations of antibody and analyzed with GraFit.

MDA-MB-231 = assay: Drug sensitivity assays with LOX/LOXL inhibition (CellTiter Glo viability); type: cell-based, human
Procedure: After 5 days of continuous exposure, cultures were rinsed and live cell number was determined using CellTiter Glo™ (Promega, San Luis Obispo, Calif.) according to manufacturer instructions. […] (FIGS. 36, 37, 38)
For siRNA drug sensitivity studies, cells were transiently transfected with […] LOX, LOXL2, or non-targeting Stealth Select™ RNAi validated oligos using the Dharmafect transfection reagent according to manufacturer instructions (Thermo Scientific, Lafayette, Colo.) 24 hrs prior to drug exposure. Knock down levels following drug exposure were verified with quantitative PCR. Stable shRNA cell lines were generated using the MISSION© shRNA Lentiviral System (Sigma-Aldrich, St. Louis, Mo.).

Compound: N#CCCN [BAPN, β-aminoproprionitrile]
surface-associated LOX activity in 3T3 cells (LOX): inhibited | mode of inhibition of LOXL2 (LOXL2): competitive inhibitor

Compound: CN(Cc1cnc2nc(N)nc(N)c2n1)c1ccc(C(=O)N[C@@H](CCC(=O)O)C(=O)O)cc1 [methotrexate (MTX), methotrexate]
reduction in viability (MDA-MB-231; MDA-MB-231 shLOX knockdown cell line vs GFP control, FIG. 37): ~2 fold

decrease of calculated IC50 (MDA-MB-231; MDA-MB-231 siLOX, siLOXL2 and siLOX/siLOXL2 double knockdown cell lines vs parent cell line (control), FIG. 39A): 27%-55%
Compound: COc1cccc2c1C(=O)c1c(O)c3c(c(O)c1C2=O)C[C@@](O)(C(=O)CO)C[C@@H]3O[C@H]1C[C@H](N)[C@H](O)[C@H](C)O1 [doxorubicin]

Compound: C#Cc1cccc(Nc2ncnc3cc(OCCOC)c(OCCOC)cc23)c1 [erlotinib, Erlotinib]
reduction in cell viability (calculated IC50 compared to control line) (MDA-MB-231; shLOXL2 knockdown cell line (shLOXL2.195) vs sh control, parental MDA-MB-231, FIG. 36): approximately 7 fold
